“Also recorded” adds a separate entry of the source.
How the values were obtained:
[1] = biological target: T1, Nudix 5 (Homo sapiens, UniProt Q9UKK9); assay: MTX-agarose affinity chromatography of cell lysate, MS identification; type: binding; details: HEK 293 lysate
T1 construct: endogenous in cells; host or cells: HEK 293
Method: (§1) After incubation for 30 minutes at 4° C. with shaking, the lysates were clarified by centrifugation (27,000×g). In some experiments, cells were lysed using 20 strokes of a Dounce® homogenizer in the absence of detergents. […] While optimizing the protocol, however, several experimental variations were tested on cell lysates including concentration by ammonium sulfate precipitation, or removal of nucleic acid with Streptomycin sulfate. In such cases, the protein sample was desalted using a PD 10 protein-desalting column (Pharmacia), which had been pre-equilibrated in the same buffer (10 mM potassium phosphate pH 7.5)
(§2) Affinity Chromatography: The desalted lysate was loaded onto a column of pre-equilibrated MTX-agarose (Sigma, 50 μL bed volume) or sepharose 4B agarose as a negative control. The lysates were allowed to slowly flow through the matrix under gravity flow. […] Retentates from the microcons were then loaded onto SDS-PAGE 4%-15% gradient mini gels (Bio-Rad). […]
(§3) The peptides were then separated by reverse phase chromatography on C18 resin and directly injected into a mass spectrometer using an automated sample-loading device from 96 well plates. […] The spectra generated were analyzed on a custom-built multi-node server platform (RADARS, ProteoMetrics), which uses two database searching programs, Sonar (ProteoMetrics) and Mascot (Matrix Sciences). […]

[2] = system: Glycogen Phosphorylase; assay: as above; type: binding, human; details: HEK 293 lysate
Method: as §1, §2, §3

[3] = biological target: T2, Divalent Cation tolerant protein CUTA (Homo sapiens, UniProt O60888); assay: as above; type: binding; details: HEK 293 lysate
T2 construct: endogenous in cells; host or cells: HEK 293
T2 sequence (O60888 33-179): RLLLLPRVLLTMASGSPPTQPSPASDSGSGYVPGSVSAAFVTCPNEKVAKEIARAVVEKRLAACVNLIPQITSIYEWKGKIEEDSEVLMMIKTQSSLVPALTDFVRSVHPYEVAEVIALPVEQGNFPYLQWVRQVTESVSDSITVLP
Method: as §1, §2, §3

[4] = biological target: T3, muscle glycogen phosphorylase b (Homo sapiens, UniProt P11217); details: cited from earlier work
T3 sequence (P11217 1-842): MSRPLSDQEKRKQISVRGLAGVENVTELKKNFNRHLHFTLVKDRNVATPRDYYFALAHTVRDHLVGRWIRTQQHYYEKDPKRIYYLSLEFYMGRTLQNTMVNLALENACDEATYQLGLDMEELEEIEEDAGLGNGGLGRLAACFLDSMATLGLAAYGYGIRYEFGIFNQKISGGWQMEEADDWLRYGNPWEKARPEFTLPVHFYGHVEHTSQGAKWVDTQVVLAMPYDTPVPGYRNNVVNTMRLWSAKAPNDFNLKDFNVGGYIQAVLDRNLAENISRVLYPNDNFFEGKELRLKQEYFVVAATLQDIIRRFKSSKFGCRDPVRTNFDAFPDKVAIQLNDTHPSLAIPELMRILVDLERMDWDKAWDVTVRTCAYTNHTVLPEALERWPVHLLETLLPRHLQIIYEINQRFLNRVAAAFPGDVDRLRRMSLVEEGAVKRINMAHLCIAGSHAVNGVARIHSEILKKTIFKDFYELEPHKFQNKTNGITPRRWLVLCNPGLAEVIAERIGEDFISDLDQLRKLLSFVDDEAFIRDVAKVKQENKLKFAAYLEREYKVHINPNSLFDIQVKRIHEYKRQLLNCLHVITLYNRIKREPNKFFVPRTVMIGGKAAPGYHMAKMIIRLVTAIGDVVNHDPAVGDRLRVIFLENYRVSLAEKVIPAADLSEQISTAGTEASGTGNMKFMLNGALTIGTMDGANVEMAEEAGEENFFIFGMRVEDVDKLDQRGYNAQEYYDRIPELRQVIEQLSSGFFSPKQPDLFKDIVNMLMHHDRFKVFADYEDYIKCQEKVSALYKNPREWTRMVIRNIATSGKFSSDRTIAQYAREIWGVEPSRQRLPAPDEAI

[5] = system: Glycinamideribonucleotide synthase (GARS); assay: MTX-agarose affinity chromatography of cell lysate, MS identification; type: binding, human; details: HEK 293 lysate; 110 kDa trifunctional protein and separate 50 kDa band
Method: as §1, §2, §3

[6] = system: Inosine monophosphate dehydrogenase; assay: as above; type: binding, human; details: HEK 293 lysate
Method: as §1, §2, §3

[7] = biological target: T4, Glutathione synthase (Homo sapiens, UniProt P48637); assay: as above; type: binding; details: HEK 293 lysate
T4 construct: endogenous in cells; host or cells: HEK 293
T4 sequence (P48637 1-474): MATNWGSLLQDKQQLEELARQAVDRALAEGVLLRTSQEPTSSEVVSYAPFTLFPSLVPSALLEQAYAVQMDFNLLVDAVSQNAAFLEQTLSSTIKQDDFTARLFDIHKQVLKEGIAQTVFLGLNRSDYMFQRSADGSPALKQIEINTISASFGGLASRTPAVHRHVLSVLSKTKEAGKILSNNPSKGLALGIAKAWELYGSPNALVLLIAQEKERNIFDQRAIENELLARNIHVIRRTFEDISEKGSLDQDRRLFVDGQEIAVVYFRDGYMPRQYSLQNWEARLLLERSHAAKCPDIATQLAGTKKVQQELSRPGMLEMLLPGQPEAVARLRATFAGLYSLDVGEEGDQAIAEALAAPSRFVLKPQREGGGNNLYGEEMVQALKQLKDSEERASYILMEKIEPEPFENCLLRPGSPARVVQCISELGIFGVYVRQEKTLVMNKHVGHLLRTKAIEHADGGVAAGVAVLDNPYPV
Method: as §1, §2, §3

[8] = biological target: T5, Deoxyguanosine kinase (Homo sapiens, UniProt Q16854); assay: as above; type: binding; details: HEK 293 lysate
T5 construct: endogenous in cells; host or cells: HEK 293
T5 sequence (Q16854 40-277): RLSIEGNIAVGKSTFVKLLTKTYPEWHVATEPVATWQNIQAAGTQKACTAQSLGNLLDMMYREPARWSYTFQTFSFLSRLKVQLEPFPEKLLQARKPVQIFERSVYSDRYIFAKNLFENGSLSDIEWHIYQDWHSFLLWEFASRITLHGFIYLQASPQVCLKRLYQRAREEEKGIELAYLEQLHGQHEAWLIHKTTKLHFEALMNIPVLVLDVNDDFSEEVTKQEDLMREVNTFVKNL
Method: as §1, §2, §3

[9] = biological target: T6, Pyridoxal Kinase (Homo sapiens, UniProt O00764); assay: as above; type: binding; details: HEK 293 lysate
T6 construct: endogenous in cells; host or cells: HEK 293
T6 sequence (O00764 1-312): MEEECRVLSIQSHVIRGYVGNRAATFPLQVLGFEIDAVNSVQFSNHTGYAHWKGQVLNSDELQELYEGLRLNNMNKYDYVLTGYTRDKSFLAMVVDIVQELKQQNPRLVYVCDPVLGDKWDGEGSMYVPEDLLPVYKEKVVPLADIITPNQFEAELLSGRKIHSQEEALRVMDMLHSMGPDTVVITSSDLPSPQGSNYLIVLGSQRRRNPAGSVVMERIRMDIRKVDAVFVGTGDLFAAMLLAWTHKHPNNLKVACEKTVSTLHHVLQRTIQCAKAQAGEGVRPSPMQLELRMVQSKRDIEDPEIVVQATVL
Method: as §1, §2, §3

[10] = system: intracellular levels of PRPP; details: reversible upon treatment with hypoxanthine; cited from earlier work

CN(Cc1cnc2nc(N)nc(N)c2n1)c1ccc(C(=O)N[C@@H](CCC(=O)O)C(=O)O)cc1 [Methotrexate]
Association with the Methotrexate matrix [1]: consistently found; also recorded: direct interactions with the Methotrexate probe | Protein identified by Mass Spec.; New MTX interactor [2]: direct binder of Methotrexate | Protein identified by Mass Spec.; New MTX interactor ([2]; listed as MTX): ✓ | Association with the Methotrexate matrix [3]: consistently found; also recorded: pulled down consistently | inhibition of muscle glycogen phosphorylase b [4]: reversible inhibitors | Association with the Methotrexate matrix [5]: GARS-derived peptides were isolated | Protein identified by Mass Spec.; New MTX interactor [6]: binds this enzyme directly | Protein identified by Mass Spec.; New MTX interactor ([6]; listed as MTX): ✓ | Association with the Methotrexate matrix [7]: consistently found | Protein identified by Mass Spec.; New MTX interactor [8]: binds to Methotrexate through a direct interaction | Protein identified by Mass Spec.; New MTX interactor ([8]; listed as MTX): ✓ | Protein identified by Mass Spec.; New MTX interactor [9]: direct binder of Methotrexate | Protein identified by Mass Spec.; New MTX interactor ([9]; listed as MTX): ✓ | effect on levels of PRPP [10]: raising the intracellular levels of PRPP; also recorded: increase on levels of PRPP

Source: patent publication US20030166007A1, “Chemical proteomics” (MDS Proteomics Inc., priority 2002, published 2003)
